From patent US12454675B2, “Method of increasing protein yield in mammalian cells in serum-free culture medium” (AGENCY FOR SCIENCE, TECHNOLOGY AND RESEARCH, priority 2016, dated 2025)

System: SH87 (CHO-K1 cell line producing an anti-Her2 monoclonal antibody)
Assay: SH87 shake flask batch cultures in PFCDM with glucose and maltose
Assay type: cell-based, Chinese Hamster
Settings: 20 g/l maltose supplemented vs 14 g/l glucose and 10 g/l maltose supplemented cultures
Protocol: Viable cell density and culture viability were determined by Trypan blue dye exclusion method using Vi-Cell XR Cell Viability Analyzer (Beckman Coulter, Brea, CA) according to manufacturer's instructions. For biochemical and other cell culture parameter analyses, 1 ml of culture sample was centrifuged at 8000 g for 10 minutes to obtain clarified supernatant. Concentrations of ammonium, glutamine, glucose and lactate were analyzed by the BioProfile 100 Plus (Nova Biomedical, Waltham, MA). Osmolality was measured using a vapor pressure osmometer (Vapro 5520, Wescor, Logan, UT), according to manufacturer's instructions. Maltose concentration was quantified using Maltose Colorimetric/Fluorometric Assay Kit (Biovision, Milpitas, CA), according to manufacturer's instructions. […] Cells were cultivated in single-use Erlenmeyer flasks (Corning), with a cell seeding density of 0.3×10^6 cells/ml in duplicates. Cell culture samples were collected and analyzed daily throughout the duration of the growth profile experiment until culture viabilities fell below 50%. When necessary, culture supernatant samples were stored at -20° C. for further analysis.

Structure (SMILES): OC[C@H]1O[C@H](O[C@H]2[C@H](O)[C@@H](O)[C@H](O)O[C@@H]2CO)[C@H](O)[C@@H](O)[C@@H]1O [maltose]
- improvement in maximum IgG titer of batch culture: 15%
